{"source": "patent US3954767A", "about": "“Piperazine salts of 2,5-dihydroxy benzene sulfonic acid mono- and diesters” (priority 1972, dated 1976)", "key": {"[1]": {"test": "Acute toxicity (LD50), mouse, oral, method of Reed and Muench", "assay_type": "in vivo, mouse (albino)", "conditions": "mouse, in vivo, po", "protocol": "(§1) The acute toxicities for the mouse are also very low. The medium lethal dose (LD50) for the mouse was determined according to the modified method of Reed and Muench (Reed L. J. & Muench H., Am. J. Hyg., 27, 493, 1938).\n(§2) 1. ACUTE TOXICITY IN THE MOUSE AND RAT\n(§3) 18 to 25 gr albino mouse.\n(§4) The LD50 was determined according to the method of Reed and Muench. […]"}, "[2]": {"test_system": "rats treated with Triton WR-1339", "test": "Hypolipemic action on the rat, Triton WR-1339 method", "assay_type": "in vivo", "conditions": "for Percentage reduction of lipids: Cholesterol / Percentage reduction of lipids: Total Lipids / Percentage reduction of lipids: Triglycerides: Table VI, with respect to Triton WR-1339", "protocol": "The above-mentioned Triton WR-1339 method was selected. The total cholesterol, triglycerides and total lipids were determined in the serum. The amount of Triton WR-1339 administered to the animals was 300 mg/kg. The amount of piperazine 2,5-dihydroxy benzene sulfonate mono-tosylate administered was 2 mMoles/Kg orally. The letter P signifies probability.\nThe above-mentioned Triton WR-1339 method was selected. The total cholesterol, triglycerides and total lipids were determined in the serum. The results obtained are given in Table V. The amount of Triton WR-1339 administered to the animals was 300 mg/Kg. The amount of the piperazine salt with one mole of the di-0-(p-chloro phenoxy isobutyrate) of 2,5-dihydroxy benzene sulfonic acid administered was 1 mMol/Kg orally. The letter P signifies probability.\nIn this Triton WR-1339 method, all the compounds are administered at a dose of 2 mMoles/Kg orally excepted those compounds in which is the residue of p-chlorophenoxy isobutyric acid, which are administered orally at a dose corresponding to 2 mMoles of R per Kg, i.e. the amount used is calculated on the basis of the residue R only."}, "mouse": {"test_system": "mouse", "test": "Acute toxicity (LD50), mouse, oral, method of Reed and Muench", "assay_type": "in vivo, mouse (albino)", "conditions": "Table VI; species and route not printed in table (mouse per b12)", "protocol": "as §1, §2, §3, §4"}, "white Leghorn chickens": {"test_system": "white Leghorn chickens", "test": "Hypolipemic action on the chicken", "assay_type": "in vivo, chicken (white Leghorn)", "protocol": "as §1\nThis study was performed with white Leghorn chickens, according to the above-mentioned method. The total cholesterol and the total lipids are determined in the plasma."}, "[3]": {"test": "Acute toxicity (LD50), rat, oral, method of Reed and Muench", "set-up": "species or system rat (Sprague-Dawley)", "conditions": "in vivo", "protocol": "as §2\n100 to 150 gr. Sprague-Dawley rats.\nThe LD50 was determined according to the method of Reed and Muench."}, "[4]": {"conditions": "Table VI, species and route not printed in table (mouse per b12), read-out: LD50 (medium lethal dose)"}, "[5]": {"conditions": "orally, 2 mMoles of R (p-chlorophenoxy isobutyric acid residue) per Kg"}, "[6]": {"conditions": "Triton 300 mg/kg + compound 2 mMoles/Kg orally, P<0,0005"}}, "note": "Where a name gives a salt, the structure may show the parent alone."}
{"smiles": "CC(C)(Oc1ccc(Cl)cc1)C(=O)Oc1ccc(O)cc1S(=O)(=O)O", "note": "[calcium 2-O-(p-chlorophenoxyisobutyryl) 2,5-dihydroxy benzene sulfonate]", "values": [{"measurement": "LD50", "setting": "[1]; [4]", "result": 3.35, "unit": "mg/kg"}, {"measurement": "Percentage reduction of lipids: Cholesterol", "setting": "[2]; [5]", "result": 30, "unit": "%"}, {"measurement": "Percentage reduction of lipids: Total Lipids", "setting": "[2]; [5]", "result": 26, "unit": "%"}, {"measurement": "Percentage reduction of lipids: Triglycerides", "setting": "[2]; [5]", "result": 32, "unit": "%"}]}
{"smiles": "Cc1ccc(S(=O)(=O)Oc2ccc(O)c(S(=O)(=O)O)c2)cc1", "note": "[diethylamine-2,5-dihydroxybenzenesulfonate monotosylate] [diethylamine 2,5-dihydroxy benzene sulfonate mono-tosylate]", "values": [{"measurement": "LD50 (medium lethal dose)", "setting": "mouse", "result": 6.588, "unit": "mg/kg"}, {"measurement": "Percentage reduction of lipids: Cholesterol", "setting": "[2]; 2 mMoles/Kg orally", "result": 23, "unit": "%"}, {"measurement": "Percentage reduction of lipids: Total Lipids", "setting": "[2]; 2 mMoles/Kg orally", "result": 31, "unit": "%"}, {"measurement": "Percentage reduction of lipids: Triglycerides", "setting": "[2]; 2 mMoles/Kg orally", "result": 32, "unit": "%"}]}
{"smiles": "CC(C)(Oc1ccc(Cl)cc1)C(=O)Oc1ccc(OC(=O)C(C)(C)Oc2ccc(Cl)cc2)c(S(=O)(=O)O)c1", "note": "[magnesium salt of di-O-(p-chloro phenoxy isobutyrate) of 2,5] [magnesium salt of di-O-(p-chlorophenoxy isobutyrate) of 2,5-dihydroxy benzene sulfonic acid]", "values": [{"measurement": "LD50 (medium lethal dose)", "setting": "mouse", "result": 4.780, "unit": "mg/kg"}, {"measurement": "Percentage reduction of lipids: Cholesterol", "setting": "[2]; [5]", "result": 5, "unit": "%"}, {"measurement": "Percentage reduction of lipids: Total Lipids", "setting": "[2]; [5]", "result": 25, "unit": "%"}, {"measurement": "Percentage reduction of lipids: Triglycerides", "setting": "[2]; [5]", "result": 51, "unit": "%"}]}
{"smiles": "Cc1ccc(S(=O)(=O)Oc2ccc(O)c(S(=O)(=O)O)c2)cc1", "note": "[morpholine 2,5-dihydroxybenzenesulfonate monotosylate] [morpholine 2.5-dihydroxybenzenesulphonate monotosylate]", "values": [{"measurement": "LD50 (medium lethal dose)", "setting": "mouse", "result": 5.301, "unit": "mg/kg"}, {"measurement": "Percentage reduction of lipids: Cholesterol", "setting": "[2]; 2 mMoles/Kg orally", "result": 12, "unit": "%"}, {"measurement": "Percentage reduction of lipids: Total Lipids", "setting": "[2]; 2 mMoles/Kg orally", "result": 31, "unit": "%"}, {"measurement": "Percentage reduction of lipids: Triglycerides", "setting": "[2]; 2 mMoles/Kg orally", "result": 23, "unit": "%"}]}
{"smiles": "Cc1ccc(S(=O)(=O)Oc2ccc(O)c(S(=O)(=O)O)c2)cc1", "note": "[piperazine 2,5-dihydroxybenzenesulfonate monotosylate] [piperazine 2.5-dihydroxybenzenesulphonate monotosylate]", "values": [{"measurement": "total lipids, b/a . 100 (Y)", "setting": "white Leghorn chickens; final relative to initial value, check sample X = 1075", "result": 726}, {"measurement": "total cholesterol, b/a . 100 (Y)", "setting": "white Leghorn chickens; final relative to initial value, check sample X = 1514", "result": 1017}, {"measurement": "total cholesterol, final value (b)", "setting": "white Leghorn chickens; final value", "result": "947,2 mg % ml of plasma"}, {"measurement": "total lipids, final value (b)", "setting": "white Leghorn chickens; final value", "result": "2360,8 mg % ml of plasma"}, {"measurement": "total cholesterol, initial value (a)", "setting": "white Leghorn chickens; initial value", "result": "93,1 mg % ml of plasma"}, {"measurement": "total lipids, initial value (a)", "setting": "white Leghorn chickens; initial value", "result": "325,2 mg % ml of plasma"}, {"measurement": "Percentage reduction of lipids: Cholesterol", "setting": "[2]; 2 mMoles/Kg orally", "result": 18, "unit": "%"}, {"measurement": "Percentage reduction of lipids: Total Lipids", "setting": "[2]; 2 mMoles/Kg orally", "result": 42, "unit": "%"}, {"measurement": "Percentage reduction of lipids: Triglycerides", "setting": "[2]; 2 mMoles/Kg orally", "result": 43, "unit": "%"}, {"measurement": "total cholesterol", "setting": "[2]; Triton 300 mg/kg + compound 2 mMoles/Kg orally, 0,0005<P<0,0025", "result": "232,3 mg % ml of plasma"}, {"measurement": "total lipids", "setting": "[2]; [6]", "result": "1211,4 mg % ml of plasma"}, {"measurement": "triglycerides", "setting": "[2]; [6]", "result": "639,8 mg % ml of plasma"}]}
{"smiles": "Cc1ccc(S(=O)(=O)Oc2ccc(O)c(S(=O)(=O)O)c2)cc1", "note": "[piperazine 2.5-dihydroxybenzenesulphonate monotosylate]", "values": [{"measurement": "LD50", "setting": "[3]; rat female", "result": 11900, "unit": "mg/kg"}, {"measurement": "LD50", "setting": "[3]; rat male", "result": "> 11900", "unit": "mg/kg"}, {"measurement": "LD50", "setting": "[1]; mouse female, read-out: LD50", "result": "> 10800", "unit": "mg/kg"}, {"measurement": "LD50", "setting": "[1]; mouse male, read-out: LD50", "result": "> 10800", "unit": "mg/kg"}]}
{"smiles": "CC(C)(Oc1ccc(Cl)cc1)C(=O)Oc1ccc(OC(=O)C(C)(C)Oc2ccc(Cl)cc2)c(S(=O)(=O)O)c1", "note": "[piperazine mono-salt of di-O-(p-chlorophenoxy isobutyrate) of 2,5-dihydroxy benzene sulfonic acid]", "values": [{"measurement": "LD50", "setting": "[3]; rat female", "result": 11700, "unit": "mg/kg"}, {"measurement": "LD50", "setting": "[3]; rat male", "result": 11000, "unit": "mg/kg"}, {"measurement": "LD50", "setting": "[1]; [4]", "result": 11000, "unit": "mg/kg"}, {"measurement": "LD50", "setting": "[1]; mouse female, read-out: LD50", "result": 8700, "unit": "mg/kg"}, {"measurement": "LD50", "setting": "[1]; mouse male, read-out: LD50", "result": 11000, "unit": "mg/kg"}]}
{"smiles": "Cc1ccc(S(=O)(=O)Oc2ccc(OS(=O)(=O)c3ccc(C)cc3)c(S(=O)(=O)O)c2)cc1", "note": "[pyridine 2,5-dihydroxy benzene sulfonate ditosylate]", "values": [{"measurement": "LD50", "setting": "[1]; [4]", "result": 700, "unit": "mg/kg"}, {"measurement": "Percentage reduction of lipids: Cholesterol", "setting": "[2]; 2 mMoles/Kg orally", "result": 17, "unit": "%"}, {"measurement": "Percentage reduction of lipids: Total Lipids", "setting": "[2]; 2 mMoles/Kg orally", "result": 31, "unit": "%"}, {"measurement": "Percentage reduction of lipids: Triglycerides", "setting": "[2]; 2 mMoles/Kg orally", "result": 44, "unit": "%"}]}
{"smiles": "Cc1ccc(S(=O)(=O)Oc2ccc(O)c(S(=O)(=O)O)c2)cc1", "note": "[pyridine 2,5-dihydroxybenzenesulfonate monotosylate] [pyridine 2,5-dihydroxy benzene sulfonate mono-tosy-late]", "values": [{"measurement": "LD50 (medium lethal dose)", "setting": "mouse", "result": 680, "unit": "mg/kg"}, {"measurement": "Percentage reduction of lipids: Cholesterol", "setting": "[2]; 2 mMoles/Kg orally", "result": 18, "unit": "%"}, {"measurement": "Percentage reduction of lipids: Total Lipids", "setting": "[2]; 2 mMoles/Kg orally", "result": 27, "unit": "%"}, {"measurement": "Percentage reduction of lipids: Triglycerides", "setting": "[2]; 2 mMoles/Kg orally", "result": 36, "unit": "%"}]}
